# Test results published in paper PMC5200928 (ACS Central Science, 2016).
# Tests used:
# ERK1/2 = ERK1/2 degradation in A375 cells, immunoblot; assay type: cell-based; settings: for ERK1/2 degradation: then Tz-thalidomide-Me 10 μM 18 h
# BRD4 = BRD4 (Homo sapiens, UniProt O60885); assay: BRD4 degradation in HeLa cells, immunoblot; assay type: cell-based
smiles,measurement,setting,value
O=C1CCC(N2C(=O)c3ccccc3C2=O)C(=O)N1 (stereo not drawn) [thalidomide],"ERK1/2 degradation, competition","ERK1/2; Probe 1 4 h, then untagged thalidomide 10 μM and Tz-thalidomide 1 μM 18 h",degradation of ERK1/2 was suppressed
CC(C)C[C@H](NC(=O)[C@H](CCc1ccccc1)NC(=O)CN1CCOCC1)C(=O)N[C@@H](Cc1ccccc1)C(=O)N[C@@H](CC(C)C)C(=O)[C@@]1(C)CO1 [carfilzomib],ERK1/2 degradation with proteasome inhibitor,"ERK1/2; 4-h pretreatment with carfilzomib 1 μM, Probe 1 and Tz-thalidomide",ERK1/2 degradation was prevented
same,BRD4 levels with proteasome inhibitor,"BRD4; 4-h pretreatment with carfilzomib 1 μM, JQ1-TCO and Tz-thalidomide treatment",BRD4 levels were rescued
Cc1nnc(-c2ccc(CNC(=O)CCCCCOc3cccc4c3C(=O)N(C3CCC(=O)N(C)C3=O)C4=O)cc2)nn1 (stereo not drawn) [Tz-thalidomide-Me],ERK1/2 degradation,ERK1/2; Probe 1 4 h,insignificant degradation of ERK1/2
same,ERK1/2 degradation,"ERK1/2; Probe 1 4 h, listed as methyl-Tz-thalidomide",reduced ERK1/2 degradation
same,BRD4 level,"BRD4; JQ1-TCO 10 μM 18 h, then Tz-thalidomide-Me 10 μM 18 h",remained unchanged
